Assay [1] concerns S. aureus (methicillin-sensitive Smith strain). The assay can be described thus: ip/ip mouse protection against lethal S. aureus infection. Details: mice protected from death: dose or concentration left out as unconfirmed. The class given is in vivo, mice. As for the experimental part:
Step 1: Screening—Each candidate prodrug is screened for activity in an ip/ip S. aureus protection model. Candidates that display efficacy equivalent to that of HB-EMAU and HB-IMAU are selected for advanced pharmacokinetic analysis and application in the more relevant mouse thigh model of infection.
The efficacy of the propyl derivatives was tested against murine staphylococcal infection in vivo. A simple “ip/ip” system was used, in which 20 gram mice (10 each) were injected ip (intraperitoneally) with a lethal dose (2.3×10^7 CFU) of the methicillin-sensitive Smith strain of S. aureus. The mice were then immediately injected ip with the antibiotic agent as a 1:9 mixture of DMSO:peanut oil. Vancomycin was used as the positive control drug.
Both hydroxybutyl compounds were tested at 10 mg/kg in the mouse protection experiment against lethal S. aureus infection described in Example 4 above.

The subject of the next assay is S. aureus. Briefly: Mouse thigh infection model. In kind it is in vivo, mice. The conditions noted are these: ip in saline, 40 mg/kg every four hours. From the text:
The mouse thigh infection model has been pioneered and used by Craig and colleagues (Craig, W. A., Redington, J. and S. C. Ebert (1991) J. Antimicr. Chemother. 27:Suppl C, 29-40; Leggett, J. E., Ebert, S., Fantin, B. and W. A. Craig (1991) Scand. J. Inf. Dis. 74:179-184). It represents a rational, flexible, cost-effective, and reproducible experimental approach for predicting the efficacy of a bacterial infection in a human patient. It is particularly useful in the present invention, because it is adaptable to the use of clinically relevant strains of Staphylococcus and Enterococcus.
Mice are made neutropenic to render them susceptible to infection with a wide variety of bacteria. […] The infected thigh of each animal is homogenized in sterile saline, and the bacterial concentration in the homogenate is determined by dilution and plating. […]
Testing can be carried out as follows. […] Treatment with the test agent and the positive control agent (vancomycin) is initiated at 2 hours post-infection, using a route (Po, ip, or sc), schedule, and dosing regimen determined by the agent's in vitro potency and specific pharmacokinetic properties.
The compounds are given by ip injection of 0.05 ml of a saline solution. […] Results are expressed as the log reduction in bacterial growth as a fraction of that in vehicle-treated animals.

One compound from US6448256B1, “Antibiotic prodrugs” (University of Massachusetts, priority 1999, dated 2002) can be followed below.

On to `CN[C@H](CC(C)C)C(=O)N[C@H]1C(=O)N[C@@H](CC(N)=O)C(=O)N[C@H]2C(=O)N[C@H]3C(=O)N[C@H](C(=O)N[C@H](C(=O)O)c4cc(O)cc(O)c4-c4cc3ccc4O)[C@H](O)c3ccc(c(Cl)c3)Oc3cc2cc(c3O[C@@H]2O[C@H](CO)[C@@H](O)[C@H](O)[C@H]2O[C@H]2C[C@](C)(N)[C@H](O)[C@H](C)O2)Oc2ccc(cc2Cl)[C@H]1O` [vancomycin, reference compound], for which, in assay [1] (20 mg/kg, positive control), the protection of mice entry is “protected all mice”. For the same compound, in assay [1] (control drug, four day experiment), the “mice protected from death” value is recorded as “all ten mice”. Further, the “log reduction in S. aureus proliferation compared with control thighs” value in the assay with S. aureus was 2-4 log.
